Data taken from PMC12682947, “Identification of New KCNT1‐Epilepsy Drugs by In Silico, Cell, and Drosophila Modeling” (Annals of Neurology, 2025).
Read-outs that look alike come from different tables or passages of the source.

Experiment: Plasma pharmacokinetics and brain uptake of antrafenine in mice (LC-MS)
Type: in vivo, male C57BL/6 mice
Settings: male, C57BL/6, mouse; for AUC(0-inf): read-out: Plasma AUC0-inf; for clearance: read-out: Plasma CL; for Vd: read-out: Plasma VSS
Description: Plasma pharmacokinetics and brain uptake of antrafenine was analyzed in male C57BL/6 mice. Antrafenine was administered intravenously at 1 mg/kg and 3 mg/kg into the tail vein and plasma was collected over a 24‐hour sampling period (n = 3 mice/time point). Following administration, the brain was harvested at 4 times over 24 hours and snap frozen in dry ice and subsequently stored frozen (−80°C) until analysis. The concentration of antrafenine was determined using liquid chromatography–mass spectrometry. The in vivo study was conducted using established procedures in accordance with the Australian Code of Practice for the Care and Use of Animals for Scientific Purposes, and the study protocols were reviewed and approved by the Monash Institute of Pharmaceutical Sciences Animal Ethics Committee. See Supporting Information for detailed methods and results. […]
Plasma pharmacokinetics and brain uptake of antrafenine was analyzed in male C57BL/6 mice by the Monash University Centre for Drug Candidate Optimisation. Antrafenine was administered intravenously at 1 mg/kg and 3 mg/kg into the tail vein and plasma was collected over a 24 h sampling period (n=3 mice/time point). Following administration, brain was harvested at four times over 24 hours and snap frozen in dry ice and subsequently stored frozen (-80°C) until analysis. The concentration of antrafenine was determined using liquid chromatography–mass spectrometry (LC-MS).
4 hrs post IV administration of 3 mg/kg Antrafenine was taken as a representative time to compare plasma and brain concentrations. At 4 hrs we determined a mean plasma concentration of 47.5 nM (+5.9 nM SD) and a mean brain concentration of 13.9 nM (+3 nM SD). […]
Plasma pharmacokinetics and brain uptake of antrafenine
The systemic exposure of antrafenine was studied in non-fasted male C57BL/6 mice weighing 19.8 – 24.6 g. Mice had access to food and water ad libitum throughout the pre- and post-dose period. Antrafenine hydrochloride Mw 588.554 (Lot#10-KSS-51-2) was obtained from Toronto Research Chemicals/LGC Standards, Canada, and was dissolved in vehicle; 5% (v/v) DMSO, 25% (v/v) 40% (w/v) Trappsol in 0.9% (w/v) saline, 70% (v/v) 40 mM citrate buffered saline at pH 3.5 at concentrations of 0.5 mg/mL and 1.5 mg/mL.
On the day of dosing, each formulation was prepared by dissolving solid antrafenine in DMSO using vortexing and sonication prior to addition of 40% (w/v) Trappsol in 0.9% (w/v) saline followed by 40 mM citrate-buffered saline at pH 3.5. Each sample was vortexed to create a colorless / light yellow solution and was filtered through a 0.22 µm syringe filter prior to dosing.
Administration of antrafenine was performed by a single bolus IV injection into the tail vein of C57BL/6 male mice using a 1ml syringe with a 25G x 1” needle at a volume of 2 mL/kg. Each […]
formulation was dosed to mice by bolus injection into the lateral tail vein (2 mL/kg) and blood samples were collected at 1, 2, 5, 15 and 30 min; 1, 2, 4, 7.5 and 24 h post-dose (n=3 mice per time point for each formulation). A maximum of three blood samples were obtained from each mouse, with plasma samples being taken via submandibular bleed (approximately 120 μL).
Blood was collected into polypropylene Eppendorf tubes containing heparin as anticoagulant and stabilization cocktail (Complete® (containing a protease inhibitor cocktail and EDTA) and potassium fluoride) to minimize the potential for ex vivo compound degradation in blood/plasma samples. Once collected, blood samples were centrifuged immediately, supernatant plasma was removed, snap frozen in dry ice and stored at -80°C until analysis by LC-MS. In addition, at the 15 min, 1, 4 and 24 h post-dose time points, the whole brain was rapidly removed from the carcass soon after the blood collection. The whole brains were blotted to remove excess blood, placed into pre-weighed polypropylene vials and weighed. The brains were snap frozen in dry […]

[1] = plasma, iv, 1 mg/kg, IV 1 mg/kg, individual mice, read-out: Plasma Concentration Individual
[2] = plasma, iv, 1 mg/kg, IV 1 mg/kg, n = 3, read-out: Plasma Concentration Mean ± SD
[3] = plasma, iv, 3 mg/kg, IV 3 mg/kg, individual mice, read-out: Plasma Concentration Individual
[4] = plasma, iv, 3 mg/kg, IV 3 mg/kg, n = 3, read-out: Plasma Concentration Mean ± SD
[5] = plasma, IV administration at 1mg/kg
[6] = plasma, IV administration at 3mg/kg

Compound `O=C(OCCN1CCN(c2cccc(C(F)(F)F)c2)CC1)c1ccccc1Nc1ccnc2cc(C(F)(F)F)ccc12` [antrafenine] has a Kp at 0.25 h (brain, iv, 3 mg/kg, IV 3 mg/kg, 0.25 h, n = 3, read-out: B:P ratio Mean ± SD) of 0.042, a concentration at 0.25 h (brain, iv, 3 mg/kg, IV 3 mg/kg, 0.25 h, n = 3, read-out: Brain Parenchyma Concentration Mean ± SD) of 29.5 nM and a Kp at 1 h (brain, iv, 3 mg/kg, IV 3 mg/kg, individual mice, read-out: B:P ratio Individual) of 0.14. It also gave a Kp at 1 h (brain, iv, 3 mg/kg, IV 3 mg/kg, n = 3, read-out: B:P ratio Mean ± SD) of 0.11, a concentration at 1 h (brain, iv, 3 mg/kg, IV 3 mg/kg, n = 3, read-out: Brain Parenchyma Concentration Mean ± SD) of 31.4 nM and a Kp at 4 h (brain, iv, 3 mg/kg, IV 3 mg/kg, 4 h, individual mice, read-out: B:P ratio Individual) of 0.32. For the same compound, the Kp at 4 h (brain, iv, 3 mg/kg, IV 3 mg/kg, 4 h, n = 3, read-out: B:P ratio Mean ± SD) was 0.29, the Kp at 4 h (brain, iv, 3 mg/kg, IV 3 mg/kg, 4 hours after administration, read-out: concentration in the brain as percentage of that present in plasma) was ~0.3 and the concentration at 4 h (brain, iv, 3 mg/kg, IV 3 mg/kg, 4 hours after administration, read-out: mean brain concentration) was 13.9 nM. The concentration at 0.25 h (plasma, iv, 1 mg/kg, IV 1 mg/kg, 0.25 h, individual mice, read-out: Plasma Concentration Individual) was 313 nM, the concentration at 0.25 h (plasma, iv, 1 mg/kg, IV 1 mg/kg, 0.25 h, n = 3, read-out: Plasma Concentration Mean ± SD) was 297 nM and the concentration at 1 h [1] was 122 nM. The concentration at 1 h [2] was 113 nM, the concentration at 4 h (plasma, iv, 1 mg/kg, IV 1 mg/kg, 4 h, individual mice, read-out: Plasma Concentration Individual) was 12.5 nM and the concentration at 4 h (plasma, iv, 1 mg/kg, IV 1 mg/kg, 4 h, n = 3, read-out: Plasma Concentration Mean ± SD) was 13.1 nM. The concentration at 24 h [1] was 2 nM, the concentration at 24 h [2] was 1.8 nM and the half-life (plasma, iv, 1 mg/kg, plasma, IV administration at 1mg/kg, read-out: Apparent t1/2 (converted)) was 7.3 h. It also gave a concentration at 0.25 h (plasma, iv, 3 mg/kg, IV 3 mg/kg, 0.25 h, individual mice, read-out: Plasma Concentration Individual) of 738 nM, a concentration at 0.25 h (plasma, iv, 3 mg/kg, IV 3 mg/kg, 0.25 h, n = 3, read-out: Plasma Concentration Mean ± SD) of 697 nM and a concentration at 1 h [3] of 282 nM. It also gave a concentration at 1 h [4] of 280 nM, a concentration at 4 h (plasma, iv, 3 mg/kg, IV 3 mg/kg, 4 h, individual mice, read-out: Plasma Concentration Individual) of 53 nM and a concentration at 4 h (plasma, iv, 3 mg/kg, IV 3 mg/kg, 4 h, n = 3, read-out: Plasma Concentration Mean ± SD) of 47.5 nM. It also gave a concentration at 4 h (plasma, iv, 3 mg/kg, IV 3 mg/kg, 4 hours after administration, read-out: mean plasma concentration) of 47.5 nM, a concentration at 24 h [3] of 5.7 nM and a concentration at 24 h [4] of 6.5 nM. The half-life (plasma, iv, 3 mg/kg, plasma, IV administration at 3mg/kg, read-out: Apparent t1/2 (converted)) was 7.4 h, the half-life (plasma, iv, 3 mg/kg, plasma, IV at 1 and 3 mg/kg, each profile, read-out: apparent terminal half-life (converted)) was ~7 h and the AUC(0-inf) [5] was 1.29 µM·h. For the same compound, the clearance [5] was 22 mL/min/kg, the Vd [5] was 2.3 L/kg and the AUC(0-inf) [6] was 3.14 µM·h. It also gave a clearance [6] of 27.1 mL/min/kg and a Vd [6] of 3.9 L/kg.
